Measurements reported in ChEMBL document CHEMBL6127134, “Light-Activable Inhibitor Overcomes Antimicrobial Resistance and Regulates Antibacterial Activity” (J Med Chem, 2024).
Converted amounts (≈) assume the structure as drawn. The source made the active and inactive calls. No cut-off for these calls is given here.

Legend:
Escherichia coli [1] = test: Antibacterial activity against drug susceptible Escherichia coli; assay type: functional
Escherichia coli [2] = test: Antibacterial activity against drug resistant Escherichia coli; assay type: functional
Escherichia coli [3] = test: Antibiofilm activity against drug susceptible Escherichia coli incubated for 48 hrs in presence of CFS by crystal violet staining based microplate reader assay; assay type: functional, organism-based
Escherichia coli [4] = test: Synergistic antibacterial activity against cefoperazone sodium resistant Escherichia coli assessed as decrease in CFS MIC at 20 ug/ml incubated for 8 hrs (reference value: 285 ug/ml); assay type: functional; conditions: dose 20 µg/ml
Escherichia coli [5] = test: Bactericidal activity against drug resistant Escherichia coli in presence of CFS by plate count method; assay type: functional
Bacteria [6] = test: Inhibition of TEM-1 activity (unknown origin) at 10 ug/ml using nitrocefin as substrate preincubated for 30 mins followed by 485 nm light irradiation and substrate addition by UV-Vis spectrometer assay; conditions: dose 10.0 µg/ml
Escherichia coli [7] = test: Bactericidal activity against drug resistant Escherichia coli after repeated drug exposure for three generation and measured on fourth generation in presence of CFS by plate count method; assay type: functional
Escherichia coli [8] = test: Antibacterial activity against cefoperazone sodium susceptible Escherichia coli incubated for 8 hrs; assay type: functional
Escherichia coli [9] = test: Antibacterial activity against cefoperazone sodium resistant Escherichia coli incubated for 8 hrs; assay type: functional
Escherichia coli [10] = test: Bactericidal activity against CFS susceptible Escherichia coli incubated under dark condition by AO/EB staining based confocal laser scanning microscopy assay; assay type: functional, organism-based
Escherichia coli [11] = test: Antibiofilm activity against drug resistant Escherichia coli incubated for 48 hrs by crystal violet staining based microplate reader assay; assay type: functional
Escherichia coli [12] = test: Antibiofilm activity against drug susceptible Escherichia coli incubated for 48 hrs by crystal violet staining based microplate reader assay; assay type: functional, organism-based
Escherichia coli [13] = test: Bactericidal activity against CFS susceptible Escherichia coli incubated under light irradiation by AO/EB staining based confocal laser scanning microscopy assay; assay type: functional, organism-based
Escherichia coli [14] = test: Antibacterial activity against CFS resistant Escherichia coli assessed as change in bacterial cell wall by SEM analysis; assay type: functional, organism-based
Escherichia coli [15] = test: Antibacterial activity against cefoperazone sodium resistant Escherichia coli assessed as elimination of resistant bacteria incubated for 8 hrs; assay type: functional
Escherichia coli [16] = test: Bactericidal activity against CFS resistant Escherichia coli incubated under dark condition by AO/EB staining based confocal laser scanning microscopy assay; assay type: functional, organism-based
Bacteria [17] = test: Inhibition of TEM-1 activity (unknown origin); conditions: concentration not given here
Bacteria [18] = test: Inhibition of TEM-1 activity (unknown origin) at 65 ug/ml using nitrocefin as substrate preincubated for 30 mins followed by 485 nm light irradiation and substrate addition measured after 5 mins by UV-Vis spectrometer assay; conditions: dose 65.0 µg/ml, time 35.0 min
Bacteria [19] = test: Inhibition of TEM-1 activity (unknown origin) at 65 ug/ml using nitrocefin as substrate preincubated for 30 mins followed by 485 nm light irradiation and substrate addition measured after 2 mins by UV-Vis spectrometer assay; conditions: dose 65.0 µg/ml, time 32.0 min
Escherichia coli [20] = test: Downregulation of beta-lactamase expression in Escherichia coli measured after eighth generation in presence of CFS under light irradiation condition by ELISA; assay type: functional
Escherichia coli [21] = test: Antibiofilm activity against Escherichia coli assessed as reduction in bacterial cell density after 48 hrs under light irradiation in presence of CFS by FITC-ConA staining based confocal laser scanning microscopy analysis; assay type: functional, organism-based
Bacteria [22] = test: Inhibition of TEM-1 activity (unknown origin) at 65 ug/ml using nitrocefin as substrate under absence of light irradiation by UV-Vis spectrometer assay; conditions: dose 65.0 µg/ml
Bacteria [23] = test: Inhibition of TEM-1 activity (unknown origin) at 65 ug/ml using nitrocefin as substrate preincubated for 30 mins followed by 485 nm light irradiation and substrate addition by UV-Vis spectrometer assay; conditions: dose 65.0 µg/ml
Escherichia coli [24] = test: Synergistic antibacterial activity against CFS susceptible Escherichia coli assessed as increase in bacterial killing incubated under dark condition in presence of CFS; assay type: functional, organism-based
Escherichia coli [25] = test: Synergistic antibacterial activity against Escherichia coli assessed as appearance of shrunken cell wall under light irradiation in presence of CFS; assay type: functional, organism-based
Escherichia coli [26] = test: Synergistic bactericidal activity against CFS susceptible Escherichia coli incubated under dark condition in presence of CFS by AO/EB staining based confocal laser scanning microscopy assay; assay type: functional, organism-based
Escherichia coli [27] = test: Synergistic antibacterial activity against Escherichia coli assessed as appearance of incomplete cell wall under light irradiation in presence of CFS; assay type: functional, organism-based
Escherichia coli [28] = test: (§1) Synergistic antibacterial activity against CFS resistant Escherichia coli assessed as increase in bacterial killing in presence of CFS preincubated for 20 mins prior to 405 nm LED laser irradiation for 5 mins and cocultured for 6 hrs under static condition and measured after 24 hrs by plate count method; assay type: functional, organism-based; conditions: time 1825.0 min
Escherichia coli [29] = test: Antibiofilm activity against Escherichia coli assessed as reduction in exo-polysaccharide content after 48 hrs under light irradiation in presence of CFS by FITC-ConA staining based confocal laser scanning microscopy analysis; assay type: functional, organism-based
Escherichia coli [30] = test: Bactericidal activity against drug resistant Escherichia coli after repeated drug exposure for multiple generation under light irradiation in presence of CFS by plate count method; assay type: functional, organism-based
Escherichia coli [31] = test: Synergistic antibacterial activity against cefoperazone sodium resistant Escherichia coli assessed as elimination of resistant bacteria incubated for 8 hrs in presence of CFS; assay type: functional
[32] = Solubility of compound in water; assay type: physicochemical
Escherichia coli [33] = test: Synergistic antibacterial activity against Escherichia coli incubated under dark condition in presence of AMP; assay type: functional, organism-based
Escherichia coli [34] = test: as §1, with “against cefoperazone sodium” for “against CFS”, “as elimination of resistant bacteria” for “as increase in bacterial killing”; assay type: functional; conditions: time 1825 min; 30.42 h
[35] = Photoactivation of the compound assessed as encapsulated SU release under 405 nm light irradiation by HPLC analysis
Escherichia coli [36] = test: Synergistic antibacterial activity against cefoperazone sodium resistant Escherichia coli assessed as decrease in CFS MIC at 132 ug/ml preincubated for 20 mins prior to 405 nm LED laser irradiation for 5 mins and cocultured for 6 hrs under static condition and measured after 24 hrs by plate count method (reference value: 285 ug/ml); assay type: functional; conditions: light or radiation study, 30.42 h, dose 132 µg/ml, time 1825 min
Escherichia coli [37] = test: Synergistic bactericidal activity against CFS susceptible Escherichia coli incubated under light irradiation in presence of CFS by AO/EB staining based confocal laser scanning microscopy assay; assay type: functional, organism-based
Escherichia coli [38] = test: Synergistic bactericidal activity against CFS resistant Escherichia coli incubated under dark condition in presence of CFS by AO/EB staining based confocal laser scanning microscopy assay; assay type: functional, organism-based
[39] = Stability of compound under ambient light condition measured after 72 hrs; assay type: physicochemical
Escherichia coli [40] = test: Synergistic antibacterial activity against Escherichia coli incubated under light irradiation in presence of AMP; assay type: functional, organism-based
[41] = Photoactivation of the compound assessed as photo conversion ratio by measuring SU release under 5 mins of blue light irradiation by HPLC analysis
Escherichia coli [42] = test: Synergistic bactericidal activity against CFS resistant Escherichia coli incubated under light irradiation in presence of CFS by AO/EB staining based confocal laser scanning microscopy assay; assay type: functional, organism-based
Escherichia coli [43] = test: Antibiofilm activity against drug resistant Escherichia coli incubated for 48 hrs under light irradiation in presence of CFS by crystal violet staining based microplate reader assay; assay type: functional
HeLa = test: Cytotoxicity against human HeLa cells assessed as viable cells after 200 ug/ml incubated for 24 hrs by MTT assay; assay type: functional; conditions: read-out: Activity
Escherichia coli [44] = test: Antibiofilm activity against drug resistant Escherichia coli incubated for 48 hrs in presence of CFS by crystal violet staining based microplate reader assay; assay type: functional
[45] = Drug uptake in Escherichia coli assessed as increase in red fluorescence at 1 mg/ml incubated for 15 mins under dark condition by acridine orange staining based confocal laser scanning microscopy analysis; assay type: ADME; conditions: 0.25 h
[46] = Drug uptake in Escherichia coli assessed as increase in red fluorescence at 1 mg/ml after 1 mins under 405 nm light irradiation by acridine orange staining based confocal laser scanning microscopy analysis; assay type: ADME

## CC1(C)S[C@@H]2[C@H](NC(=O)[C@H](N)c3ccccc3)C(=O)N2[C@H]1C(=O)O [AMPICILLIN]
Escherichia coli [1]
  MIC: 8 µg/mL (≈ 22.9 µM)
Escherichia coli [2]
  MIC: 150 µg/mL (≈ 429 µM)

## CC1(C)[C@H](C(=O)O)N2C(=O)C[C@H]2S1(=O)=O [SULBACTAM]
Escherichia coli [3]
  Activity: Active
Escherichia coli [4]
  MIC: 14 µg/mL
Escherichia coli [5]
  Activity: 98%
Bacteria [6]
  inhibition: 93.3%
Escherichia coli [7]
  Activity: 45%

## CCN1CCN(C(=O)N[C@@H](C(=O)N[C@@H]2C(=O)N3C(C(=O)[O-])=C(CSc4nnnn4C)CS[C@H]23)c2ccc(O)cc2)C(=O)C1=O.[Na+] [CEFOPERAZONE SODIUM]
Escherichia coli [8]
  MIC: 14 µg/mL
Escherichia coli [9]
  MIC: 285 µg/mL
Escherichia coli [10]
  Activity: Active
Escherichia coli [11]
  Activity: ~50%
Escherichia coli [12]
  Activity: Active
Escherichia coli [13]
  Activity: Active
Escherichia coli [14]
  Activity: inactive
Escherichia coli [15]
  Activity: 54.2%
Escherichia coli [16]
  Activity: inactive

## CC1(C)C(C(=O)OCCCOC(=O)Cc2ccccc2[N+](=O)[O-])N2C(=O)CC2S1(=O)=O (stereo not given)
Bacteria [17]
  inhibition: 10.6%

## CC(COC(=O)C1N2C(=O)CC2S(=O)(=O)C1(C)C)c1cc(-c2ccc(OCCOCCOCCOCCn3nncc3CCCO[C@H]3O[C@H](CO)[C@H](O)[C@H](O)[C@H]3O)cc2)ccc1[N+](=O)[O-] (stereo not given in full)
Bacteria [18]
  inhibition: 89.1%
Bacteria [19]
  inhibition: 84.7%
Escherichia coli [3]
  Activity: Active
Escherichia coli [20]
  Activity: Active
Escherichia coli [21]
  Activity: Active
Bacteria [22]
  inhibition: 7.26%
Bacteria [23]
  inhibition: Active
Escherichia coli [24]
  Activity: Active
Escherichia coli [25]
  Activity: Active
Escherichia coli [26]
  Activity: inactive
Escherichia coli [27]
  Activity: Active
Escherichia coli [28]
  Activity: Active
Escherichia coli [29]
  Activity: Active
Escherichia coli [30]
  Activity: Active
Escherichia coli [31]
  Activity: 54.7%
[32]
  solubility: ≤ 1000 µM
Escherichia coli [33]
  Activity: Active
Escherichia coli [34]
  Activity: 96.01%
[35]
  Activity: ~ 60%
Escherichia coli [36]
  MIC: 14 µg/mL
Escherichia coli [37]
  Activity: Active
Escherichia coli [38]
  Activity: inactive
[39]
  Stability: Stable
Escherichia coli [40]
  Activity: Active
[41]
  Activity: 62%
Escherichia coli [42]
  Activity: Active
Escherichia coli [43]
  Activity: ~90%
HeLa
  viability at 200 µg/mL: > 90%
Escherichia coli [44]
  Activity: ~50%

## CCN(CC)c1ccc2c(-c3ccccc3COCC(C)c3cc(-c4ccc(OCCOCCOCCOCCn5nncc5CCCO[C@H]5O[C@H](CO)[C@H](O)[C@H](O)[C@H]5O)cc4)ccc3[N+](=O)[O-])c3ccc(=[N+](CC)CC)cc-3oc2c1.Cl (stereo not given in full)
[45]
  Drug uptake: Active
[46]
  Drug uptake: Active

## CC1(C)C(C(=O)OCCc2ccccc2[N+](=O)[O-])N2C(=O)CC2S1(=O)=O (stereo not given)
Bacteria [17]
  inhibition: 9.03%
[41]
  Activity: 25%
